Test results from patent publication US20240270673A1, “PROCESS AND SYSTEM FOR THE RECOVERY OF GLYOXYLIC ACID” (Avantium Knowledge Centre B.V., priority 2021, published 2024).

Experiment: Low-temperature crystallization of oxalic acid from aqueous glyoxylic acid/oxalic acid solutions (Crystal16 parallel crystallizer), liquid phase concentration after equilibration
Assay type: physicochemical
Conditions: liquid phase after equilibration over night
Text: Low-temperature crystallization experiments have been carried out on a series of solutions containing glyoxylic acid and oxalic acid at different concentrations.
Solutions containing glyoxylic acid and oxalic acid at different concentrations have been prepared and were cooled under controlled conditions in a Crystal16™ parallel crystallizer (Technobis Crystallization Systems). After reaching the set temperature the mixture as left to equilibrate over night after which a sample of the liquid phase was taken to determine the concentration of oxalic acid and glyoxylic acid after crystallization.

[1] = Entry 1, T setpoint 10 degree Celsius, at RT glyoxylic 150.4 gr/L, oxalic 58.8 gr/L
[2] = Entry 2, T setpoint 5 degree Celsius, at RT glyoxylic 150.4 gr/L, oxalic 58.8 gr/L
[3] = Entry 3, T setpoint 0 degree Celsius, at RT glyoxylic 150.4 gr/L, oxalic 58.8 gr/L
[4] = Entry 4, T setpoint −5 degree Celsius, at RT glyoxylic 150.4 gr/L, oxalic 58.8 gr/L
[5] = Entry 5, T setpoint 10 degree Celsius, at RT glyoxylic 310.6 gr/L, oxalic 44.1 gr/L
[6] = Entry 6, T setpoint 5 degree Celsius, at RT glyoxylic 310.6 gr/L, oxalic 44.1 gr/L
[7] = Entry 7, T setpoint 0 degree Celsius, at RT glyoxylic 310.6 gr/L, oxalic 44.1 gr/L
[8] = Entry 8, T setpoint −5 degree Celsius, at RT glyoxylic 566.8 gr/L, oxalic 29.5 gr/L

O=C(O)C(=O)O [oxalic acid]
Oxalic concentration at setpoint [1]: 36.3 gr/L
Oxalic concentration at setpoint [2]: 32.70 gr/L
Oxalic concentration at setpoint [3]: 27.04 gr/L
Oxalic concentration at setpoint [4]: 22.37 gr/L
Oxalic concentration at setpoint [5]: 29.07 gr/L
Oxalic concentration at setpoint [6]: 21.83 gr/L
Oxalic concentration at setpoint [7]: 19.25 gr/L
Oxalic concentration at setpoint [8]: 9.57 gr/L

O=CC(=O)O [glyoxylic acid, Glyoxylic acid]
Glyoxylic concentration at setpoint [1]: 156.1 gr/L
Glyoxylic concentration at setpoint [2]: 160.62 gr/L
Glyoxylic concentration at setpoint [3]: 157.73 gr/L
Glyoxylic concentration at setpoint [4]: 161.70 gr/L
Glyoxylic concentration at setpoint [5]: 326.42 gr/L
Glyoxylic concentration at setpoint [6]: 323.65 gr/L
Glyoxylic concentration at setpoint [7]: 332.54 gr/L
Glyoxylic concentration at setpoint [8]: 573.48 gr/L
